Assay results: PubChem BioAssay AID256 (DTP/NCI, 2004)
Where “and” joins values, the source holds several entries; their conditions need not be identical. Equal values may be shown once. Inconclusive results and toxic doses are left out. How the source made its calls: active means survival T/C of 150% or more; inactive means T/C below 125% in these data.

System: CD2F1 mice, L1210 leukemia ip, survival T/C
Assay: NCI In Vivo Anticancer Drug Screen. Data for tumor model L1210 Leukemia (intraperitoneal) in CD2F1 (CDF1) mice
Settings: higher = longer survival
Procedure, shortened: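 Ratio T/C, where T is the treated-group value and C the vehicle-dosed control value, from mice implanted with a transplantable tumor.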

[1] = endpoint: mean survival time, dose: 25.0 mg/kg/injection, schedule: Q01DX009 (ip), vehicle: saline
[2] = endpoint: mean survival time, dose: 50.0 mg/kg/injection, schedule: Q01DX009 (ip), vehicle: saline
[3] = endpoint: mean survival time, dose: 100.0 mg/kg/injection, schedule: Q01DX009 (ip), vehicle: saline
[4] = endpoint: mean survival time, dose: 200.0 mg/kg/injection, schedule: Q01DX009 (ip), vehicle: saline
[5] = endpoint: mean survival time, dose: 75.0 mg/kg/injection, schedule: Q01DX001 (ip), vehicle: saline
[6] = endpoint: mean survival time, dose: 150.0 mg/kg/injection, schedule: Q01DX001 (ip), vehicle: saline
[7] = endpoint: mean survival time, dose: 100.0 mg/kg/injection, schedule: Q01DX009 (ip), vehicle: saline with Tween-80
[8] = endpoint: mean survival time, dose: 100.0 mg/kg/injection, schedule: Q04DX003 (ip), vehicle: saline with Tween-80
[9] = endpoint: mean survival time, dose: 200.0 mg/kg/injection, schedule: Q04DX003 (ip), vehicle: saline with Tween-80
[10] = endpoint: mean survival time, dose: 400.0 mg/kg/injection, schedule: Q04DX003 (ip), vehicle: saline with Tween-80
[11] = endpoint: mean survival time, dose: 100.0 mg/kg/injection, schedule: Q01DX001 (ip), vehicle: saline with Tween-80
[12] = endpoint: mean survival time, dose: 200.0 mg/kg/injection, schedule: Q01DX001 (ip), vehicle: saline with Tween-80
[13] = endpoint: mean survival time, dose: 12.5 mg/kg/injection, schedule: Q01DX005 (ip), vehicle: other
[14] = endpoint: mean survival time, dose: 25.0 mg/kg/injection, schedule: Q01DX005 (ip), vehicle: other
[15] = endpoint: mean survival time, dose: 50.0 mg/kg/injection, schedule: Q01DX005 (ip), vehicle: other
[16] = endpoint: mean survival time, dose: 100.0 mg/kg/injection, schedule: Q01DX005 (ip), vehicle: other

Measured: T/C

CN(C)C=O
inactive: [1] 101 % of control | [2] 97 % of control | [3] 101 % of control | endpoint: mean survival time, dose: 100.0 mg/kg/injection, schedule: Q04DX002 (ip), vehicle: saline 111 % of control | [4] 100 % of control | endpoint: mean survival time, dose: 200.0 mg/kg/injection, schedule: Q04DX002 (ip), vehicle: saline 96 % of control | endpoint: mean survival time, dose: 400.0 mg/kg/injection, schedule: Q01DX009 (ip), vehicle: saline 109 % of control | endpoint: mean survival time, dose: 400.0 mg/kg/injection, schedule: Q04DX002 (ip), vehicle: saline 111 % of control | endpoint: mean survival time, dose: 800.0 mg/kg/injection, schedule: Q01DX009 (ip), vehicle: saline 106 % of control | endpoint: mean survival time, dose: 1600.0 mg/kg/injection, schedule: Q01DX009 (ip), vehicle: saline 105 % of control

O=P(O)(NCCCl)NCCCl
inactive: endpoint: median survival time, dose: 25.0 mg/kg/injection, schedule: Q01DX001 (ip), vehicle: saline with Tween-80 116 % of control | endpoint: median survival time, dose: 150.0 mg/kg/injection, schedule: Q01DX001 (iv), vehicle: saline 86 % of control
active: endpoint: mean survival time, dose: 100.0 mg/kg/injection, schedule: Q01DX001 (ip), vehicle: saline 404 % of control | endpoint: mean survival time, dose: 200.0 mg/kg/injection, schedule: Q01DX001 (ip), vehicle: saline 488 % of control | endpoint: median survival time, dose: 50.0 mg/kg/injection, schedule: Q01DX001 (ip), vehicle: saline with Tween-80 160 % of control | endpoint: median survival time, dose: 75.0 mg/kg/injection, schedule: Q01DX001 (ip), vehicle: saline 356 % of control | endpoint: median survival time, dose: 100.0 mg/kg/injection, schedule: Q01DX001 (ip), vehicle: saline with Tween-80 160 % of control and 185 % of control | endpoint: median survival time, dose: 100.0 mg/kg/injection, schedule: Q01DX001 (ip), vehicle: saline 232 % of control and 410 % of control | endpoint: median survival time, dose: 100.0 mg/kg/injection, schedule: Q01DX001 (iv), vehicle: saline 219 % of control | endpoint: median survival time, dose: 125.0 mg/kg/injection, schedule: Q01DX001 (ip), vehicle: saline 202 % of control | endpoint: median survival time, dose: 150.0 mg/kg/injection, schedule: Q01DX001 (ip), vehicle: saline 205 % of control | endpoint: median survival time, dose: 200.0 mg/kg/injection, schedule: Q01DX001 (ip), vehicle: saline with Tween-80 191 % of control

CCCC(C)C1C(=O)N(C)C(=O)N(C)C1=O (configuration not stated)
inactive: [5] 104 % of control | [6] 103 % of control | endpoint: mean survival time, dose: 300.0 mg/kg/injection, schedule: Q01DX001 (ip), vehicle: saline 98 % of control

CS(=O)(=O)c1nc2ccccc2s1
inactive: [7] 103 % of control | endpoint: mean survival time, dose: 200.0 mg/kg/injection, schedule: Q01DX009 (ip), vehicle: saline with Tween-80 91 % of control

CCCCCCCCN(C)N=Nc1ccccc1
inactive: endpoint: mean survival time, dose: 79.0 mg/kg/injection, schedule: Q01DX009 (ip), vehicle: Klucel (hydroxypropylcellulose) (HPC) 110 % of control | endpoint: mean survival time, dose: 177.0 mg/kg/injection, schedule: Q01DX009 (ip), vehicle: Klucel (hydroxypropylcellulose) (HPC) 124 % of control | endpoint: mean survival time, dose: 266.0 mg/kg/injection, schedule: Q01DX009 (ip), vehicle: Klucel (hydroxypropylcellulose) (HPC) 122 % of control

CCOC(=O)NCNC(C)C(=O)O (configuration not stated)
inactive: [2] 115 % of control | [3] 104 % of control | [4] 115 % of control

CCCCCC(CC)OC(=O)Nc1cccc2ccccc12 (configuration not stated)
inactive: [8] 89 % of control | [9] 101 % of control | [10] 100 % of control

COC(=O)C(N)CS (configuration not stated)
inactive: [8] 101 % of control | [9] 101 % of control | [10] 106 % of control

CCCCC(C)(C(=O)OCC)C(=O)OCC
inactive: endpoint: mean survival time, dose: 12.5 mg/kg/injection, schedule: Q01DX009 (ip), vehicle: Klucel (hydroxypropylcellulose) (HPC) 98 % of control | endpoint: mean survival time, dose: 25.0 mg/kg/injection, schedule: Q01DX009 (ip), vehicle: Klucel (hydroxypropylcellulose) (HPC) 98 % of control | endpoint: mean survival time, dose: 50.0 mg/kg/injection, schedule: Q01DX009 (ip), vehicle: Klucel (hydroxypropylcellulose) (HPC) 108 % of control | endpoint: mean survival time, dose: 100.0 mg/kg/injection, schedule: Q01DX009 (ip), vehicle: Klucel (hydroxypropylcellulose) (HPC) 98 % of control | endpoint: mean survival time, dose: 200.0 mg/kg/injection, schedule: Q01DX009 (ip), vehicle: Klucel (hydroxypropylcellulose) (HPC) 98 % of control | endpoint: mean survival time, dose: 400.0 mg/kg/injection, schedule: Q01DX009 (ip), vehicle: Klucel (hydroxypropylcellulose) (HPC) 106 % of control

CCCCCCCCCCCCCCCC(O)S(=O)(=O)O (configuration not stated)
inactive: endpoint: mean survival time, dose: 50.0 mg/kg/injection, schedule: Q01DX009 (ip), vehicle: saline with Tween-80 93 % of control | [7] 94 % of control

CC(C)C(O)C(C)(C)c1nc2ccccc2[nH]1 (configuration not stated)
inactive: [11] 100 % of control | [12] 94 % of control

CC12CCC(=O)C=C1CCC1C2CCC2(C)C1CCC2(O)C(=O)Cn1c(=O)cc[nH]c1=O (configuration not stated)
inactive: endpoint: mean survival time, dose: 12.5 mg/kg/injection, schedule: Q04DX003 (ip), vehicle: Klucel (hydroxypropylcellulose) (HPC) 100 % of control | endpoint: mean survival time, dose: 25.0 mg/kg/injection, schedule: Q04DX003 (ip), vehicle: Klucel (hydroxypropylcellulose) (HPC) 93 % of control | endpoint: mean survival time, dose: 50.0 mg/kg/injection, schedule: Q04DX003 (ip), vehicle: Klucel (hydroxypropylcellulose) (HPC) 94 % of control | endpoint: mean survival time, dose: 100.0 mg/kg/injection, schedule: Q04DX003 (ip), vehicle: Klucel (hydroxypropylcellulose) (HPC) 93 % of control | endpoint: mean survival time, dose: 200.0 mg/kg/injection, schedule: Q04DX003 (ip), vehicle: Klucel (hydroxypropylcellulose) (HPC) 93 % of control

C[N+](C)(CC(=O)Nc1ccc(Cl)c(Cl)c1)CC(=O)c1ccc(Cl)cc1
inactive: [1] 87 % of control

Nc1ccc(S(=O)(=O)Nc2cnc3c(Cl)cccc3n2)cc1
inactive: endpoint: median survival time, dose: 100.0 mg/kg/injection, schedule: Q01DX005 (ip), vehicle: DMSO 98 % of control | endpoint: median survival time, dose: 200.0 mg/kg/injection, schedule: Q01DX005 (ip), vehicle: DMSO 98 % of control | endpoint: median survival time, dose: 400.0 mg/kg/injection, schedule: Q01DX005 (ip), vehicle: DMSO 98 % of control | endpoint: median survival time, dose: 800.0 mg/kg/injection, schedule: Q01DX005 (ip), vehicle: DMSO 105 % of control

CCCCCCCCCCCCCCn1cnc2c(Cl)ncnc21
inactive: [13] 105 % of control | [14] 97 % of control | [15] 94 % of control | [16] 97 % of control | endpoint: mean survival time, dose: 200.0 mg/kg/injection, schedule: Q01DX005 (ip), vehicle: other 102 % of control

C[n+]1cccc(NC(=O)COc2ccc(Cl)c(Cl)c2)c1
inactive: endpoint: mean survival time, dose: 25.0 mg/kg/injection, schedule: Q04DX003 (ip), vehicle: saline with Tween-80 106 % of control | endpoint: mean survival time, dose: 50.0 mg/kg/injection, schedule: Q04DX003 (ip), vehicle: saline with Tween-80 104 % of control | [8] 97 % of control and 104 % of control

Cc1ccnc(OCCCCCNCCS)c1
inactive: [5] 98 % of control | [6] 98 % of control

CCCCCCCCCCCCCCCCCCCOc1ccc(OCCCCCCCCCCCCCCCC)cc1
inactive: [11] 100 % of control | [12] 96 % of control | endpoint: mean survival time, dose: 400.0 mg/kg/injection, schedule: Q01DX001 (ip), vehicle: saline with Tween-80 88 % of control

CCCCCCCCCCCCCCCCOC(=O)c1cc([N+](=O)[O-])cc([N+](=O)[O-])c1Sc1ncnc2nc[nH]c12
inactive: endpoint: mean survival time, dose: 0.63 mg/kg/injection, schedule: Q01DX005 (ip), vehicle: other 105 % of control | endpoint: mean survival time, dose: 1.25 mg/kg/injection, schedule: Q01DX005 (ip), vehicle: other 108 % of control | endpoint: mean survival time, dose: 2.5 mg/kg/injection, schedule: Q01DX005 (ip), vehicle: other 113 % of control | endpoint: mean survival time, dose: 5.0 mg/kg/injection, schedule: Q01DX005 (ip), vehicle: other 113 % of control | endpoint: mean survival time, dose: 10.0 mg/kg/injection, schedule: Q01DX005 (ip), vehicle: other 120 % of control | [13] 109 % of control | endpoint: mean survival time, dose: 15.7 mg/kg/injection, schedule: Q01DX005 (ip), vehicle: other 106 % of control | [14] 117 % of control and 112 % of control | endpoint: mean survival time, dose: 31.3 mg/kg/injection, schedule: Q01DX005 (ip), vehicle: other 124 % of control | [15] 115 % of control and 122 % of control | [16] 116 % of control | endpoint: mean survival time, dose: 400.0 mg/kg/injection, schedule: Q01DX005 (ip), vehicle: other 118 % of control

CCOC(=O)NCCBr
inactive: endpoint: mean survival time, dose: 37.5 mg/kg/injection, schedule: Q01DX007 (ip), vehicle: saline 88 % of control | endpoint: mean survival time, dose: 75.0 mg/kg/injection, schedule: Q01DX007 (ip), vehicle: saline 97 % of control | endpoint: mean survival time, dose: 150.0 mg/kg/injection, schedule: Q01DX007 (ip), vehicle: saline 92 % of control
